From PubChem BioAssay (NCI)
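Compound exposure: 48 hours, 5 concentrations, 96-well plates. TGI is the concentration that stops growth completely.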

What was measured:
Test in all cases: growth of human tumour cells (NCI), 48 h
K-562 leukemia = tested on: K-562 leukemia
OVCAR-5 ovarian = tested on: OVCAR-5 ovarian
SR leukemia = tested on: SR leukemia
SN12C renal = tested on: SN12C renal
HL-60(TB) leukemia = tested on: HL-60(TB) leukemia
MDA-MB-435 = tested on: MDA-MB-435
SK-MEL-28 melanoma = tested on: SK-MEL-28 melanoma
SNB-19 CNS = tested on: SNB-19 CNS
HCT-15 colon = tested on: HCT-15 colon
NCI-H226 lung = tested on: NCI-H226 lung
NCI-H522 lung = tested on: NCI-H522 lung
TK-10 renal = tested on: TK-10 renal
SW-620 colon = tested on: SW-620 colon
A498 renal = tested on: A498 renal
SK-MEL-2 melanoma = tested on: SK-MEL-2 melanoma
NCI-H23 lung = tested on: NCI-H23 lung
786-0 renal = tested on: 786-0 renal
SF-295 CNS = tested on: SF-295 CNS
IGROV1 ovarian = tested on: IGROV1 ovarian
OVCAR-3 ovarian = tested on: OVCAR-3 ovarian
MOLT-4 leukemia = tested on: MOLT-4 leukemia
UACC-257 melanoma = tested on: UACC-257 melanoma
UO-31 renal = tested on: UO-31 renal
DU-145 prostate = tested on: DU-145 prostate
EKVX NSCLC = tested on: EKVX NSCLC
HS 578T breast = tested on: HS 578T breast
HOP-92 NSCLC = tested on: HOP-92 NSCLC
HOP-62 NSCLC = tested on: HOP-62 NSCLC
LOX IMVI melanoma = tested on: LOX IMVI melanoma
HCT-116 colon = tested on: HCT-116 colon
MDA-N = tested on: MDA-N
U251 CNS = tested on: U251 CNS
A549 NSCLC = tested on: A549 NSCLC
NCI/ADR-RES ovarian = tested on: NCI/ADR-RES ovarian
HT29 colon = tested on: HT29 colon
SF-268 CNS = tested on: SF-268 CNS
OVCAR-4 ovarian = tested on: OVCAR-4 ovarian
MALME-3M melanoma = tested on: MALME-3M melanoma
M14 melanoma = tested on: M14 melanoma
SNB-75 CNS = tested on: SNB-75 CNS
CAKI-1 renal = tested on: CAKI-1 renal
BT-549 breast = tested on: BT-549 breast
OVCAR-8 ovarian = tested on: OVCAR-8 ovarian
UACC-62 melanoma = tested on: UACC-62 melanoma
SK-MEL-5 melanoma = tested on: SK-MEL-5 melanoma
PC-3 prostate = tested on: PC-3 prostate
NCI-H460 lung = tested on: NCI-H460 lung
KM12 colon = tested on: KM12 colon
CCRF-CEM leukemia = tested on: CCRF-CEM leukemia
MDA-MB-231 breast = tested on: MDA-MB-231 breast
RXF 393 renal = tested on: RXF 393 renal
ACHN renal = tested on: ACHN renal
RPMI-8226 leukemia = tested on: RPMI-8226 leukemia
COLO 205 colon = tested on: COLO 205 colon
MCF7 breast = tested on: MCF7 breast
SK-OV-3 ovarian = tested on: SK-OV-3 ovarian
SF-539 CNS = tested on: SF-539 CNS
HCC-2998 colon = tested on: HCC-2998 colon
T-47D breast = tested on: T-47D breast

Measured: TGI

O=C(O)CSCC(=O)O
> 100 µM: K-562 leukemia | OVCAR-5 ovarian | SR leukemia | SN12C renal | HL-60(TB) leukemia | MDA-MB-435 | SK-MEL-28 melanoma | SNB-19 CNS | HCT-15 colon | NCI-H226 lung | NCI-H522 lung | TK-10 renal | SW-620 colon | A498 renal | SK-MEL-2 melanoma | NCI-H23 lung | 786-0 renal | SF-295 CNS | IGROV1 ovarian | OVCAR-3 ovarian | MOLT-4 leukemia | UACC-257 melanoma | UO-31 renal | DU-145 prostate | EKVX NSCLC | HS 578T breast | HOP-92 NSCLC | HOP-62 NSCLC | LOX IMVI melanoma | HCT-116 colon | MDA-N | U251 CNS | A549 NSCLC | NCI/ADR-RES ovarian | HT29 colon | SF-268 CNS | OVCAR-4 ovarian | MALME-3M melanoma | M14 melanoma | SNB-75 CNS | CAKI-1 renal | BT-549 breast | OVCAR-8 ovarian | UACC-62 melanoma | SK-MEL-5 melanoma | PC-3 prostate | NCI-H460 lung | KM12 colon | CCRF-CEM leukemia | MDA-MB-231 breast | RXF 393 renal | ACHN renal

O=C(Cn1cc(F)c(=O)[nH]c1=O)C12CC3CC(CC(C3)C1)C2
> 100 µM: K-562 leukemia | OVCAR-5 ovarian | SR leukemia | RPMI-8226 leukemia | SN12C renal | HL-60(TB) leukemia | MDA-MB-435 | COLO 205 colon | SK-MEL-28 melanoma | SNB-19 CNS | HCT-15 colon | NCI-H522 lung | TK-10 renal | SW-620 colon | A498 renal | SK-MEL-2 melanoma | NCI-H23 lung | 786-0 renal | SF-295 CNS | IGROV1 ovarian | OVCAR-3 ovarian | MCF7 breast | MOLT-4 leukemia | UACC-257 melanoma | UO-31 renal | DU-145 prostate | EKVX NSCLC | HS 578T breast | HOP-62 NSCLC | LOX IMVI melanoma | HCT-116 colon | SK-OV-3 ovarian | MDA-N | U251 CNS | SF-539 CNS | A549 NSCLC | NCI/ADR-RES ovarian | HT29 colon | SF-268 CNS | OVCAR-4 ovarian | MALME-3M melanoma | M14 melanoma | SNB-75 CNS | CAKI-1 renal | BT-549 breast | OVCAR-8 ovarian | UACC-62 melanoma | SK-MEL-5 melanoma | PC-3 prostate | NCI-H460 lung | KM12 colon | CCRF-CEM leukemia | MDA-MB-231 breast | HCC-2998 colon | RXF 393 renal | T-47D breast | ACHN renal
